Measured values taken from patent publication US5939560A, “Inhibitors of DP-mediated processes, compositions and therapeutic methods thereof” (Ferring B.V., priority 1993, dated 1999).
pKi: −log10 of the molar value.

The compounds below were run against pure human DP-IV (Homo sapiens, UniProt P27487) (assay: Inhibition of pure human DP-IV in vitro, fluorescent substrate Ala-Pro-AFC, Ki from Dixon plots). Details: not given.
Experimental: All compounds were tested in vitro against pure human DP-IV (purchased from M & E, Copenhagen, Denmark). […] Ki values were determined using Dixon plots.

pure human DP-IV, sequence (P27487 whole entry): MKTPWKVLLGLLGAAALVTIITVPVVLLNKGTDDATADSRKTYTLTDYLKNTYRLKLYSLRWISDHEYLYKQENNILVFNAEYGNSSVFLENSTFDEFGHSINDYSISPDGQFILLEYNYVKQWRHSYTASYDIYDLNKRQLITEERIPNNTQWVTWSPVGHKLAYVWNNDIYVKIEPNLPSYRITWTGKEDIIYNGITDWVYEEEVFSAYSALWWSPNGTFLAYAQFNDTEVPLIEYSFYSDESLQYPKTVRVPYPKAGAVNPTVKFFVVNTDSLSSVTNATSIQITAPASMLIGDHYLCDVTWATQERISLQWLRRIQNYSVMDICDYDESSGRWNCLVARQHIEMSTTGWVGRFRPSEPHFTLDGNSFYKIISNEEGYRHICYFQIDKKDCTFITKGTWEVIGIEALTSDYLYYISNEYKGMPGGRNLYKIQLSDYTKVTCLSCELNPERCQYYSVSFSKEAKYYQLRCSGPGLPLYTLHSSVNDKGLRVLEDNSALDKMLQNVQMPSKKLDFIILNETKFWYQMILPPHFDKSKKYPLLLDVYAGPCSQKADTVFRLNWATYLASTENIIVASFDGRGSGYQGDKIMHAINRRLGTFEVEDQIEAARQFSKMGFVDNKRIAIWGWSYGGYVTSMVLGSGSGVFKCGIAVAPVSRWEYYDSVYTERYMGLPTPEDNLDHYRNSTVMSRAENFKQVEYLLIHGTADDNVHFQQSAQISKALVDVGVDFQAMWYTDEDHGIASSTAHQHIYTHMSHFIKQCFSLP

| SMILES | pKi |
| --- | --- |
| CC1(C)C2CC3OB(C4CCCN4C(=O)C4CC=CCC4N)OC3(C)C1C2 (centres unmarked) [compound 44] | 8.70 |
| N#C[C@@H]1CSCN1C(=O)[C@@H](N)C1CCCC1 [compound 23] | 9.30 |
| N#C[C@@H]1CCCN1C(=O)[C@@H](N)CCC(=O)NCCCCCC(=O)OCc1ccccc1 [compound 97] | 9.30 |
| N#C[C@@H]1CCCN1C(=O)[C@@H](N)CCCCNC(=O)CCCCCCCN [compound 136] | 7.77 |
| CCCCCCO[C@H](C)[C@H](N)C(=O)N1CCCC1 [compound 143, H-Thr[(CH2)5 CH3]pyrrolidide] | 6.03 |
| N[C@@H](CCC(=O)NCCCCCCC(=O)NCCCCCC(=O)O)C(=O)N1CCCC1 [compound 66] | 6.74 |
| N#C[C@@H]1CCCN1C(=O)[C@H]1CC=CC[C@@H]1N [compound 35] | 7.43 |
| N[C@H]1CCCC[C@@H]1C(=O)N1CCC[C@H]1C=O [compound 38] | 8.01 |
| N[C@@H](CCC(=O)NCCCCCC(=O)OCc1ccccc1)C(=O)N1CCCC1 [compound 59] | 6.82 |
| N[C@@H](CCCCNC(=O)CCCNS(=O)(=O)c1c(F)c(F)c(F)c(F)c1F)C(=O)N1CCCC1 [compound 110, H-Lys[CO(CH2)3 NHSO2 Pfp]Prl] | 6.60 |

Same assay, conditions: read-out: Ki against DP-IV; pure human DP-IV, pH 7.8, substrate Ala-Pro-AFC, Dixon plots

| SMILES | pKi |
| --- | --- |
| CC[C@H](C)[C@H](N)/C=C1\CCC[C@H]1C#N [compound 150] | 5.77 |
